Results from EPA's CvTdb concentration-time database.

Experiments:
Assay in all cases: concentration in plasma after dosing
Rat [1] = details: 40 min; dosed: Emodin; 5 mg/kg; iv; Male; F344/N
Rat [2] = details: 5 min; dosed: Emodin; 5 mg/kg; iv; Male; F344/N
Rat [3] = details: 5 min; dosed: Emodin; 5 mg/kg; iv; Male; F344/N; remark: listed apart in the source
Rat [4] = details: 9 h; dosed: Emodin; 80 mg/kg; oral; Female; F344/N
Rat [5] = details: 20 min; dosed: Emodin; 5 mg/kg; iv; Female; F344/N
Rat [6] = details: 6 h; dosed: Emodin; 80 mg/kg; oral; Male; F344/N
Rat [7] = details: dosed: Emodin, 5 mg/kg, iv, Female, F344/N
Rat [8] = details: 40 min; dosed: Emodin; 5 mg/kg; iv; Male; F344/N; remark: listed apart in the source
Rat [9] = details: dosed: Emodin, 80 mg/kg, oral, Female, F344/N
Rat [10] = details: 20 min; dosed: Emodin; 5 mg/kg; iv; Male; F344/N
Rat [11] = details: 9 h; dosed: Emodin; 80 mg/kg; oral; Male; F344/N
Rat [12] = details: 20 min; dosed: Emodin; 5 mg/kg; iv; Female; F344/N; remark: listed apart in the source
Rat [13] = details: dosed: Emodin, 5 mg/kg, iv, Female, F344/N; remark: listed apart in the source
Rat [14] = details: dosed: Emodin, 5 mg/kg, iv, Male, F344/N
Rat [15] = details: 10 min; dosed: Emodin; 5 mg/kg; iv; Female; F344/N
Rat [16] = details: dosed: Emodin, 5 mg/kg, iv, Female, F344/N; remark: listed apart in the source
Rat [17] = details: 20 min; dosed: Emodin; 5 mg/kg; iv; Male; F344/N; remark: listed apart in the source
Rat [18] = details: 10 min; dosed: Emodin; 5 mg/kg; iv; Male; F344/N
Rat [19] = details: 6 h; dosed: Emodin; 80 mg/kg; oral; Female; F344/N
Rat [20] = details: 9 h; dosed: Emodin; 80 mg/kg; oral; Female; F344/N; remark: listed apart in the source
Rat [21] = details: 40 min; dosed: Emodin; 5 mg/kg; iv; Female; F344/N
Rat [22] = details: 6 h; dosed: Emodin; 80 mg/kg; oral; Female; F344/N; remark: listed apart in the source
Rat [23] = details: 9 h; dosed: Emodin; 80 mg/kg; oral; Male; F344/N; remark: listed apart in the source
Rat [24] = details: dosed: Emodin, 5 mg/kg, iv, Male, F344/N; remark: listed apart in the source
Rat [25] = details: 10 min; dosed: Emodin; 5 mg/kg; iv; Male; F344/N; remark: listed apart in the source
Rat [26] = details: 10 min; dosed: Emodin; 5 mg/kg; iv; Female; F344/N; remark: listed apart in the source
Rat [27] = details: dosed: Emodin, F344/N
Rat [28] = details: 12 h; dosed: Emodin; 80 mg/kg; oral; Male; F344/N
Rat [29] = details: dosed: Emodin, 80 mg/kg, oral, Female, F344/N; remark: listed apart in the source
Rat [30] = details: 40 min; dosed: Emodin; 5 mg/kg; iv; Female; F344/N; remark: listed apart in the source
Rat [31] = details: dosed: Emodin, 5 mg/kg, iv, Female, F344/N; remark: listed apart in the source

How did the concentration in plasma (Rat [1]) turn out when `Cc1cc(O)c2c(c1)C(=O)c1cc(O)cc(O)c1C2=O` [Emodin] was run?
Its concentration in plasma is 2.2 µg/mL.

What about the concentration in plasma (Rat [2]) of the same compound?
Its concentration in plasma is 8.48 µg/mL.

And the concentration in plasma (Rat [3])?
The concentration in plasma was 8.39 µg/mL.

And the concentration in plasma (Rat [4])?
Its concentration in plasma is 0.198 µg/mL.

What about the concentration in plasma (Rat [5]) of the same compound?
Its concentration in plasma is 0.794 µg/mL.

What about the concentration in plasma (Rat [6]) of the same compound?
The concentration in plasma was 0.108 µg/mL.

What about the concentration in plasma (Rat [7]; 2 min) of the same compound?
The concentration in plasma was 5.99 µg/mL.

What about the concentration in plasma (Rat [7]; 1 h) of the same compound?
The concentration in plasma was 0.163 µg/mL.

And the concentration in plasma (Rat [8])?
Its concentration in plasma is 1.7 µg/mL.

What about the concentration in plasma (Rat [9]; 3 h) of the same compound?
Its concentration in plasma is 0.255 µg/mL.

What about the concentration in plasma (Rat [9]; 12 h) of the same compound?
Its concentration in plasma is 0.184 µg/mL.

What about the concentration in plasma (Rat [10]) of the same compound?
The concentration in plasma was 4.36 µg/mL.

And the concentration in plasma (Rat [11])?
Its concentration in plasma is 0.155 µg/mL.

What about the concentration in plasma (Rat [12]) of the same compound?
The concentration in plasma was 1.19 µg/mL.

What about the concentration in plasma (Rat [13]; 2 min) of the same compound?
Its concentration in plasma is 6.49 µg/mL.

And the concentration in plasma (Rat [13]; 1 h)?
The concentration in plasma was 0.158 µg/mL.

What about the concentration in plasma (Rat [14]; 2 min) of the same compound?
The concentration in plasma was 10.5 µg/mL.

What about the concentration in plasma (Rat [14]; 1 h) of the same compound?
Its concentration in plasma is 0.229 µg/mL.

What about the concentration in plasma (Rat [15]) of the same compound?
The concentration in plasma was 3.01 µg/mL.

What about the concentration in plasma (Rat [16]; 5 min) of the same compound?
The concentration in plasma was 5.16 µg/mL.

What about the concentration in plasma (Rat [16]; 1.5 h) of the same compound?
The concentration in plasma was 0.151 µg/mL.

And the concentration in plasma (Rat [17])?
Its concentration in plasma is 5.93 µg/mL.

What about the concentration in plasma (Rat [18]) of the same compound?
The concentration in plasma was 7.37 µg/mL.

And the concentration in plasma (Rat [19])?
The concentration in plasma was 0.165 µg/mL.

And the concentration in plasma (Rat [20])?
The concentration in plasma was 0.232 µg/mL.

What about the concentration in plasma (Rat [21]) of the same compound?
Its concentration in plasma is 0.928 µg/mL.

What about the concentration in plasma (Rat [22]) of the same compound?
The concentration in plasma was 0.151 µg/mL.

And the concentration in plasma (Rat [23])?
Its concentration in plasma is 0.153 µg/mL.

And the concentration in plasma (Rat [24]; 2 min)?
Its concentration in plasma is 8.58 µg/mL.

What about the concentration in plasma (Rat [24]; 1 h) of the same compound?
Its concentration in plasma is 0.219 µg/mL.

What about the concentration in plasma (Rat [25]) of the same compound?
The concentration in plasma was 6.18 µg/mL.

And the concentration in plasma (Rat [26])?
The concentration in plasma was 2.26 µg/mL.

And the concentration in plasma (Rat [27]; 2 min, 5 mg/kg, iv, Female)?
Its concentration in plasma is 4.97 µg/mL.

And the concentration in plasma (Rat [27]; 2 min, 5 mg/kg, iv, Male)?
The concentration in plasma was 8.38 µg/mL.

And the concentration in plasma (Rat [27]; 5 min, 5 mg/kg, iv, Female)?
The concentration in plasma was 3.04 µg/mL.

And the concentration in plasma (Rat [27]; 5 min, 5 mg/kg, iv, Male)?
Its concentration in plasma is 7.82 µg/mL.

And the concentration in plasma (Rat [27]; 10 min, 5 mg/kg, iv, Female)?
Its concentration in plasma is 1.65 µg/mL.

And the concentration in plasma (Rat [27]; 10 min, 5 mg/kg, iv, Male)?
The concentration in plasma was 4.66 µg/mL.

And the concentration in plasma (Rat [27]; 20 min, 5 mg/kg, iv, Female)?
The concentration in plasma was 2.4 µg/mL.

What about the concentration in plasma (Rat [27]; 20 min, 5 mg/kg, iv, Male) of the same compound?
Its concentration in plasma is 4.97 µg/mL.

What about the concentration in plasma (Rat [27]; 40 min, 5 mg/kg, iv, Female) of the same compound?
The concentration in plasma was 0.74 µg/mL.

And the concentration in plasma (Rat [27]; 40 min, 5 mg/kg, iv, Male)?
The concentration in plasma was 1.98 µg/mL.

What about the concentration in plasma (Rat [27]; 1 h, 5 mg/kg, iv, Female) of the same compound?
The concentration in plasma was 0.256 µg/mL.

What about the concentration in plasma (Rat [27]; 1 h, 5 mg/kg, iv, Male) of the same compound?
The concentration in plasma was 0.205 µg/mL.

What about the concentration in plasma (Rat [27]; 1.5 h, 5 mg/kg, iv, Female) of the same compound?
The concentration in plasma was 0.119 µg/mL.

And the concentration in plasma (Rat [27]; 1.5 h, 80 mg/kg, oral, Female)?
Its concentration in plasma is 0.136 µg/mL.

And the concentration in plasma (Rat [27]; 3 h, 80 mg/kg, oral, Female)?
Its concentration in plasma is 0.115 µg/mL.

And the concentration in plasma (Rat [27]; 6 h, 40 mg/kg, oral, Female)?
The concentration in plasma was 0.114 µg/mL.

What about the concentration in plasma (Rat [27]; 6 h, 80 mg/kg, oral, Female) of the same compound?
The concentration in plasma was 0.143 µg/mL.

And the concentration in plasma (Rat [27]; 6 h, 80 mg/kg, oral, Male)?
The concentration in plasma was 0.159 µg/mL.

And the concentration in plasma (Rat [27]; 8 h, 40 mg/kg, oral, Female)?
Its concentration in plasma is 0.111 µg/mL.

What about the concentration in plasma (Rat [27]; 9 h, 80 mg/kg, oral, Female) of the same compound?
The concentration in plasma was 0.269 µg/mL.

And the concentration in plasma (Rat [27]; 9 h, 80 mg/kg, oral, Male)?
Its concentration in plasma is 0.126 µg/mL.

And the concentration in plasma (Rat [27]; 12 h, 80 mg/kg, oral, Female)?
Its concentration in plasma is 0.167 µg/mL.

What about the concentration in plasma (Rat [27]; 12 h, 80 mg/kg, oral, Male) of the same compound?
The concentration in plasma was 0.116 µg/mL.

What about the concentration in plasma (Rat [28]) of the same compound?
Its concentration in plasma is 0.11 µg/mL.

What about the concentration in plasma (Rat [29]; 3 h) of the same compound?
The concentration in plasma was 0.136 µg/mL.

And the concentration in plasma (Rat [29]; 12 h)?
The concentration in plasma was 0.175 µg/mL.

And the concentration in plasma (Rat [30])?
Its concentration in plasma is 0.963 µg/mL.

And the concentration in plasma (Rat [31]; 5 min)?
Its concentration in plasma is 4.78 µg/mL.

What about the concentration in plasma (Rat [31]; 1.5 h) of the same compound?
The concentration in plasma was 0.128 µg/mL.
